Measurements as given in patent US20050240034A1, “Artemisinin-based peroxide compounds as broad spectrum anti-infective agents” (priority 2002, published 2005).

Columns and labels:
P. falciparum = settings: cited from earlier work
[1] = tested on: P. falciparum Sierra Leone D6 clone; test: WHO/TDR in vitro antimalarial screen (uptake of radiolabeled nucleic acid precursor), D6 clone; assay type: cell-based, Plasmodium falciparum; settings: mefloquine-resistant, chloroquine-sensitive, second value in brackets not explained
Description: (§1) All test compounds are solubilized in DMSO and diluted 400 fold (to rule out a DMSO effect) in culture medium with plasma for a starting concentration of at least 12,500 ng/mL. Drugs are subsequently diluted five fold using the Cetus Pro/Pette system utilizing a range of concentrations from 0.8 ng/mL to 12,500 ng/mL. Fifty percent inhibitory concentrations are reported in ng/mL.
(§2) The D6 African P. falciparum clone is sensitive to chloroquine, pyrimethamine and sulfadoxine but resistant to mefloquine. The W2 Indochina P. falciparum clone is resistant to chloroquine, pyrimethamine and sulfadoxine but sensitive to mefloquine. The K1 P. falciparum is a resistant strain, where NF54 P. falciparum is a sensitive strain.

aqueous solubility = assay type: physicochemical; settings: pH 6.5, phosphate buffer
Description: (§3) Compounds 39 and 36 have reasonably low plasma LOQ of about 10 ng/mL, so it will be tested with lower oral doses in the coming future. If we assume that it is only the fraction of drug in solution that is absorbed, then the oral bioavailabilities may well increase with lower doses.

[2] = tested on: VERO cells (monkey kidney fibroblast); assay type: cell-based
Description: (§4) Antileishmanial activity of the compounds was tested on a transgenic cell line of Leishmania donovani promastigotes expressing firefly luciferase.^29a In a 96 well microplate assay, compounds with appropriate dilution were added to the leishmania promastigotes culture (2×10^6 cell/mL). The plates were incubated at 26° C. for 72 hours and growth of leishmania promastigotes was determined by luciferase assay with Steady Glo® reagent (Promega, USA). Pentamidine and Amphotericin B were used as standard antileishmanial agents. The analogues were simultaneously tested for cytotoxicity on VERO cells (monkey kidney fibroblast) by Neutral Red assay.^29b IC50 values for the compounds were computed from the growth inhibition curve.

P. falciparum K1 = test: WHO/TDR in vitro antimalarial screen, K1; assay type: cell-based, Plasmodium falciparum; settings: K1, chloroquine-resistant
Description: (§5) […]. All test compounds are solubilized in DMSO and diluted 400 fold (to rule out a DMSO effect) in culture medium with plasma for a starting concentration of at least 12,500 ng/mL. Drugs are subsequently diluted five fold using the Cetus Pro/Pette system utilizing a range of concentrations from 0.8 ng/mL to 12,500 ng/mL. Fifty percent inhibitory concentrations are reported in ng/mL.
as §2

[3] = tested on: P. falciparum W2 (IndoChina); test: antimalarial parasite LDH (pLDH) assay, W2; assay type: cell-based, Plasmodium falciparum; settings: for P. falciparum (IC50) W2: LDH assay, Table 6; for S. I. (W2): Selectivity Index = IC50 (Vero cells)/IC50 (P. falciparum)
Description: (§6) The Thad Cochran National Center for Natural Products Research (University of Mississippi) in vitro antimalarial screen was conducted using an enzyme assay for detection of P. falciparum (see procedure below). This assay is based on the observation that lactate dehydrogenase (LDH) of P. falciparum is distinguishable from host LDH activity. P. falciparum LDH rapidly uses 3-acetyl pyridine nicotinamide adenine dinucleotide (APAD) as a coenzyme in the biotransformation of […].^38 The same process is carried out in human red blood cells at a very slow rate.
(§7) The “Antimalarial parasite LDH assay” is currently being conducted according the following procedure: prepare a suspension of RBC with a 2% parasitemia and 2% hematocrit in malaria complete medium. Dispense 200 μl aliquots of this suspension into each well of a 96 well microtiter plate. Add 10 μl volumes of the drugs to be tested in duplicate to the appropriate wells. Place the plates into humidified chamber and flush the cultures with a gas mixture consisting of 90% N2, 5% O2, and 5% CO2. Transfer the chamber containing the plates to an incubator, and incubate for 48 hours at 37° C. After 48 hours add 100 μl aliquots of the Malstat™ reagent to each well of a new 96-well microtiter plate Resuspend the cultures from the assay plate by mixing each well up and down several times. Remove 20 μl from each well of the resuspend culture and add to the plate containing the Malstat™ reagent. Incubate the plates at room temperature for 30 minutes. After 30 minutes, add to each well 20 μl of the 1:1 mixture of the NBT/PES solution (2 mg/ml and 0.1 mg/ml, respectively). Incubate the plates in the dark for 1 hour. Add 100 μl of 5% acetic acid solution to stop the reaction. The plate is then read at an endpoint of approximately 650 nm. The dose response curves are generated using Microsoft Excel.
(§8) Antimalarial activity of the analogues was determined in vitro on chloroquine sensitive (D)6, Sierra Leone) and resistant (W2, IndoChina) strains of Plasmodium falciparum. The 96 well microplate assay is based on evaluation of the effect of the compounds on the growth of asynchronous cultures of P. falciparum, determined by the assay of parasite lactate dehydrogenase (pLDH) activity.^28 The appropriate dilutions of the compounds were prepared in DMSO or RPMI-1640 medium and added to the cultures of P. falciparum (2% hematocrit, 2% parasitemia) set up in clear flat bottomed 96 well plates. The plates were placed into the humidified chamber and flushed with a gas mixture of 90% N2, 5% CO2 & 5% O2. The cultures were incubated at 37° C. for 48 hours. Growth of the parasite in each well was determined by pLDH assay using Malstat® reagent. The medium and RBC controls were also set-up in each plate.

P. berghei N = test: in vivo Peter's 4-day antimalarial test in mice, P. berghei N; settings: mice, 4-day test, unit not given; for P. berghei N P.O. ED50 / P. berghei N P.O. ED90: oral; for P. berghei N S.C. ED50 / P. berghei N S.C. ED90: subcutaneous
Description: (§9) The parasitemia is determined on the day following the last treatment—day 4 to determine qualitatively the presence and degree of activity at the screening dose.

P. falciparum NF54 = test: WHO/TDR in vitro antimalarial screen, NF54; assay type: cell-based, Plasmodium falciparum; settings: NF54, chloroquine-sensitive; second value in brackets not explained
Description: as §5, §2

[4] = tested on: P. falciparum Indochina W2 clone; test: WHO/TDR in vitro antimalarial screen, W2 clone; assay type: cell-based, Plasmodium falciparum; settings: chloroquine-resistant, mefloquine-sensitive, second value in brackets not explained
Description: as §1, §2

P. yoelli ssp. NS = test: in vivo 4-day antimalarial test in mice, P. yoelli ssp. NS; settings: subcutaneous; unit not given
Description: as §9

[5] = pharmacokinetics in rats after intravenous and oral administration; assay type: in vivo; settings: for absolute oral bioavailability: high oral dose (~120 mg/kg)
Description: Preliminary data for the PK results of compounds 39 and 36 have been disclosed. […] Due to their very low aqueous solubility, the absolute oral bioavailability of each compound was low. The low value is rather a function of the high oral dose (˜120 mg/kg), but even with these high doses, the plasma concentrations are still relatively low.
The reason for the use of high oral dose is that the LC/MS assay has different intrinsic sensitivities for the different series of the Malperox compounds. Also, in order to compare all compounds from the different series at the same oral molar dose (dictated by the compound, which has the highest LOQ in the assay), it was necessary for them to have gone with this dose.
as §3
Solubility limitations meant that 36 could only be dosed IV at approximate 2 mg/kg (compared with the approximate 12 mg/kg dose for 39). It is possible that the shorter measured half life for 36 was a function of lower plasma concentrations, which have reflected part of the distribution phase rather than a true elimination phase.

[6] = tested on: P. falciparum D6 (Sierra Leone); test: antimalarial parasite LDH (pLDH) assay, D6; assay type: cell-based, Plasmodium falciparum; settings: for P. falciparum (IC50) D6: LDH assay, Table 6; for S. I. (D6): Selectivity Index = IC50 (Vero cells)/IC50 (P. falciparum)
Description: as §6, §7
as §8, with “plate. The standard antimalarial agents, chloroquine and artemisinin, were used as the positive controls while DMSO was tested as the negative control.” for “plate.”

[7] = tested on: Leishmania donovani promastigotes expressing firefly luciferase; test: antileishmanial luciferase assay on transgenic promastigotes; assay type: cell-based; settings: Table 1 (artemisinin analogues); NA = not active up to 125 μg/ml; read-out: Antileishmanial activity IC50
Description: as §4

Row | Compound | P. falciparum (IC50) D6 [1] [µg/mL] | aqueous solubility (aqueous solubility) [microgram per mL] | P. falciparum (IC50) K1 (P. falciparum K1) [µg/mL] | P. falciparum (IC50) W2 [3] [µg/mL] | S. I. (W2) [3] | P. berghei N P.O. ED50 (P. berghei N) | P. berghei N P.O. ED90 (P. berghei N) | P. berghei N S.C. ED50 (P. berghei N) | P. berghei N S.C. ED90 (P. berghei N) | P. falciparum (IC50) NF54 (P. falciparum NF54) | P. falciparum (IC50) W2 [4] [µg/mL] | P. yoelli ssp. NS (S.C.) ED50 (P. yoelli ssp. NS) | P. yoelli ssp. NS (S.C.) ED90 (P. yoelli ssp. NS) | absolute oral bioavailability [5] | P. falciparum (IC50) D6 [6] [µg/mL] | S. I. (D6) [6] | also measured
1 | C[C@H]1[C@@H](O)O[C@@H]2O[C@@]3(C)CC[C@H]4[C@H](C)CC[C@@H]1[C@@]24OO3 [dihydroartemisinin] | – | – | – | – | – | – | – | – | – | – | – | – | – | – | – | – | times more potent than the parent compound (artemisinin) in vitro (P. falciparum): approximately 10 times
2 | (+)-Octahydro-3,6α-dimethyl-3,12-epoxy-9β-(3′-(m-chlorophenyl)propyl)-12H-pyrano[4,3j]-1,2-benzodioxepin [Compound 36] | 0.00755 | ~0.1 | 0.01007 | 0.008 | >60 | 2.0 (0.9-3.5) | 8.3 (3.5-14.0) | 0.5 (0.1-1.0) | 0.9 (0.3-1.8) | 16.27 (40.19) ng/mL | 0.0216 | 0.60 (0.4-1.0) | 1.00 (0.8-1.8) | low | 0.0076 | >63.0 | Cytotoxicity (Vero) TC50 [2]: NC^b
3 | (+)-Octahydro-3,6α-dimethyl-3,12-epoxy-9β-(3′-(m-trifluoromethylphenyl)propyl)-12H-pyrano[4,3j]-1,2-benzodioxepin [Compound 38] | 0.00848 | – | 0.012 | 0.011 | >43 | 1.25 (0.5-2.3) | 4.4 (1.3-6.2) | 0.4 (0.2-1.2) | 0.75 (0.4-2.1) | 35.60 (30.76) ng/mL | 0.03032 | 0.60 (0.3-0.9) | 1.00 (0.5-1.5) | – | 0.0087 | >55.0 | IC50 [7]: 1900 nM; IC50 ([3]; pLDH assay, Table 5, read-out: P. falciparum (W2 Clone) IC50): 11.3 nM; IC50 ([6]; pLDH assay, Table 5, read-out: P. falciparum (D6 Clone) IC50): 27.8 nM
4 | (+)-Octahydro-3,6α-dimethyl-3,12-epoxy-9β-(3′-(p-trifluoromethylphenyl)propyl)-12H-pyrano[4,3j]-1,2-benzodioxepin [Compound 39] | 0.02813 | ~0.1 | 0.03955 | 0.012 | >40 | 0.63 (0.32-1.25) | 2.1 (1.1-4.1) | 0.44 (0.25-0.62) | 0.85 (0.5-1.2) | 101.52 (48.78) ng/mL | 0.05801 | 0.67 (0.5-0.88) | 1.25 (0.95-1.6) | low | 0.012 | >40 | half-life ([5]; IV, approximate 12 mg/kg): 1.22 h
